Results: patent US6649780B1, “Cationic lipids” (Valentis, Inc., priority 1998, dated 2003)

Test: Liposome formation and sizing after extrusion
Assay type: physicochemical
Method: Two mice studies have been performed for the evaluation of cationic lipids of the present invention, in comparison with DOTIM. In brief, the lipid combinations were tested as carriers for gene transfer by intravenous delivery in ICR female mice (25 g), and expression was determined using the plasmid p4119 containing the CAT reporter gene under the control of the HCMV promoter. The lipids were dissolved in a mixture of chloroform and methanol (1.1). Lipid films of cationic and neutral lipid at a 1:1 molar ratio were formed with a rotary evaporator. The films were hydrated with 5% dextrose in water (D5W) at room temperature and extruded through a series of membranes having pore sizes of 400 nm, 200 nm, and 50 nm.
DNA-liposome complexes were prepared at a 1:10 DNA:cationic lipid ratio (mg DNA per μmole cationic lipid) by adding the DNA, in a solution at 0.625 mg/mL concentration in D5W to the solution of liposomes, in an equal volume, with constant stirring, using a Hamilton Dilutor 540B (Hamilton, Reno, Nev.). The lipids used were MBN 246, 247, 248, 249, 250, 251 and 252 (FIG. 10). MBN 249 was used in a 1:10 ratio with cholesterol. MBN 250 was used in a 1:10 ratio with DLPE. The DNA solution was 0.3125 mg/mL DNA in D5W. […] Zeta potential was determined by a Zeta Plus, Zeta Potential Analyzer (Brookhaven Instruments Corp.).

**Q.** With “N,N-Dimethyl-N-(2,3-dihydroxypropanylo-N-(2,3-dioleyloxypropanyl)amonium Chloride [MBN305]” as the substance, how does the liposome formation read?
**A.** Its liposome formation is “forms liposomes easily”.
